≈ marks a conversion by molar mass, not a printed value.
Settings: buffer; pH 7.4; 200.0 µM

SMILES | solubility kinetic [µg/mL]
Cc1ccc(SCC(=O)NC(=O)c2ccccc2Br)c(C)c1 | > 56.7
CCOC(=O)N1CCN(C(=O)Cc2ccccc2[N+](=O)[O-])CC1 | > 48.2
CCc1ccc(S(=O)(=O)Nc2ccc(C)c(NS(C)(=O)=O)c2)cc1 | 48.6 (≈ 132 µM)
CCN1CCN(CCC(=O)Nc2ccccc2C)CC1 | > 41.3
Nc1ccc(S(=O)(=O)Nc2nc3ccccc3o2)cc1 | > 43.4
CC(=O)c1ccc(NC(=O)Nc2cccc3ccccc23)cc1 | 0.4 (≈ 1.31 µM)
C=C(C)CNC(=S)NNC(=O)c1ccncc1 | > 37.5
CCN(CC)CCNC(=O)C(Oc1ccccc1)Oc1ccccc1 | 45.8 (≈ 134 µM)
CCc1ccc(OCCn2ccnc2)cc1 | 19.7 (≈ 91.1 µM)
NC(=O)CC(c1ccccc1)c1ccc2c(c1)OCO2 (stereo unspecified) | 39.9 (≈ 148 µM)
O=C(c1cnc2nc3ccccc3n2c1)c1cc(F)ccc1O | 9.2 (≈ 29.9 µM)
CC1CN(C(=O)/C=C/c2ccccc2Cl)CC(C)O1 (stereo unspecified) | 36.5 (≈ 130 µM)
CC(=O)c1cccc(NC(=O)COC(=O)Cn2cnc3ccccc32)c1 | > 52.7
COc1ccc2c(c1)sc1nc(=O)ccn12 | > 34.8
O=S(=O)(c1ccc(-c2cc(C(F)(F)F)on2)s1)N1CCCC1 | 1 (≈ 2.84 µM)
Cc1nc(C)c(C)nc1C | < 0.1
O=[N+]([O-])c1cccc2c3c([nH]c12)CCCC3 | < 0.2
COC(CNc1ncnc2c1cnn2C)OC | > 35.6
N#Cc1c(N2CCSCC2)nsc1-c1ccccc1Cl | 3.4 (≈ 10.6 µM)
Cc1cccc(S(=O)(=O)NC2CCCCCCC2)c1 | 25.2 (≈ 89.5 µM)
CCOc1ncccc1C(=O)OCc1c(F)cccc1Cl | 4.6 (≈ 14.9 µM)

SMILES | solubility kinetic [µg/mL]
O=C(O)CC1SC(=O)N(CC(=O)c2ccccc2)C1=O (stereo unspecified) | > 44
COc1cccc(Nc2ccc([N+](=O)[O-])c3nonc23)c1 | 5.2 (≈ 18.2 µM)
CN(C)c1ccc(/C=N/NC(=O)c2ccn(C)n2)cc1 | > 40.7
COc1cccc(NC(=O)CNCc2ccccc2)c1.Cl | > 46
COP(=O)(c1ccc(N(C)C)cc1)C(O)c1ccccc1 (stereo unspecified) | > 45.8
NC(=O)C1CCN(CC(=O)Nc2ccc3c(c2)OCCO3)CC1 | > 47.9
C=CCC(C=C)[N+]1(CC(=O)OC)CCCCC1.[Br-] (stereo unspecified) | > 47.7
COCCNC(=O)/C(C#N)=C/c1cccc(OCc2ccccc2)c1 | 21.2 (≈ 63 µM)
COC(=O)CCCN1C(=O)c2cccc3cccc(c23)C1=O | 43.6 (≈ 147 µM)
O=C(OCc1ccc([N+](=O)[O-])cc1)c1cc2ccccc2oc1=O | < 0.7
CC(=O)c1c(C)n(CCc2ccc(Cl)cc2)c2ccc(O)cc12 | < 0.7
COc1cc2ccccc2cc1C(=O)N1CCCC(C(F)(F)F)C1 (stereo unspecified) | > 50.6
CCOc1ccc(C2NC(=O)CCC2[N+](=O)[O-])cc1 (stereo unspecified) | > 39.6
O=C(NC1CCN(Cc2ccccc2Cl)CC1)c1ccccc1 | 47.6 (≈ 145 µM)
CCC(=O)c1ccc(N2CCN(C(=O)c3ccc(F)cc3)CC2)c(F)c1 | > 53.8
O=C1CC2C(=O)NCCN2C(=NC(=O)c2ccccc2)N1 (stereo unspecified) | 41.2 (≈ 144 µM)
O=C(OCC(=O)N1CCc2ccccc21)c1nc(Cl)ccc1Cl | 23.3 (≈ 66.3 µM)
CCc1c(C(=O)Nc2cc(C(=O)OC)ccc2C)csc1C | 1 (≈ 3.15 µM)
CCN(C(=S)Nc1ccc(OC(F)F)cc1)C1CCCCC1 | 5.4 (≈ 16.4 µM)
Cc1cc(C)c(NC(=O)CN2CCCCCC2)c(C)c1 | > 41.2
CC(=O)COC(=O)C1=NN(c2ccccc2)C(=O)CC1 | > 41.1

SMILES | solubility kinetic [µg/mL]
Cc1ccc(CNC(=O)Nc2ccccc2)n1C | 31.6 (≈ 130 µM)
Cc1ccc(CNC(=O)c2nccnc2C(=O)O)cc1 | > 40.7
CCCN1CN(c2ccccc2)C(=S)N(c2ccccc2)C1 | > 46.7
Cc1ccc(S(=O)(=O)N2CCCCC2C)cc1[N+](=O)[O-] (stereo unspecified) | 24.2 (≈ 81.1 µM)
C=CCNc1nc2ccccc2c(=O)[nH]1 | 29.1 (≈ 145 µM)
Cc1cccn2c(=O)c(/C=N/O)c(NCc3ccccc3)nc12 | < 0.2
Cc1cccc(-n2c(=S)[nH]c3nc4c(cc3c2=O)COC(C)(C)C4)c1 | 1.7 (≈ 4.81 µM)
O=S(=O)(NC1CC1)c1ccccc1 | 28.3 (≈ 143 µM)
COc1ccc(CC(=O)OCC(=O)Nc2ccc(Cl)cc2C)cc1 | 9 (≈ 25.9 µM)
O=C(N[C@@H](Cc1c[nH]c2ccccc12)C(=O)O)c1ccccc1Cl | 45.8 (≈ 134 µM)
CCC(C)(C)NC(=O)CCCSc1nc2ccccc2[nH]1 | 28.7 (≈ 94 µM)
O=C1OC(N2C(=O)CC[C@H]2C(=O)Nc2ccc3c(c2)OCO3)c2ccccc21 (stereo partly specified) | > 57.1
CC(Oc1ccccc1)C(=O)N1CCN(c2ncccn2)CC1 (stereo unspecified) | > 46.9
COc1ccccc1N1CCN(C(=O)C2CC2)CC1 | > 39.1
CC12CCC(=O)N1C(C(=O)NCCc1ccccc1)CS2 (stereo unspecified) | 37.6 (≈ 124 µM)
CCCCON1C(=O)c2cccc3cccc(c23)C1=O | 8.8 (≈ 32.7 µM)
CSc1ccc(CN2CCN(C(=O)Cc3ccccc3)CC2)cc1 | 28.9 (≈ 84.9 µM)
O=C(Cc1cccs1)Nc1ccc(F)cc1 | > 35.3
Cc1ccc(NC(=O)CSc2cccc3cccnc23)c(C)c1 | 5.2 (≈ 16.1 µM)

— PubChem BioAssay AID1996
